US20250195528A1, “DOSE REGIMEN OF VICASINABIN” (Hoffmann-La Roche Inc., priority 2022, published 2025)
Where “and” joins values, the source holds several entries; their conditions need not be identical. Equal entries are not always repeated. Entries after “also recorded” stand apart in the source; their conditions may differ. Where two headings read alike, the source gives them in different places.

Legend:
human CB2 = biological target: T1, human CB2 (Homo sapiens, UniProt P34972); experiment: Radioligand binding to CB2, CHO cells expressing recombinant CB2
T1 construct: expressed in transfected cells; host or cells: CHO cells

[1] = Study BP40387 Part 1 (SAD) pharmacokinetics, healthy participants; type: in vivo, human; conditions: single and multiple dose, on average
[2] = system: 131 targets along with 57 CNS- and abuse potential-specific targets; experiment: In vitro pharmacology profile on target panels; conditions: 30 μM
Protocol: The in vitro pharmacology profile of RO6868847 was evaluated at concentration of 30 μM on panels including 131 targets along with 57 CNS- and abuse potential-specific targets.

CB2 receptor on B-cells = biological target: T2, CB2 receptor on B-cells (Homo sapiens, UniProt P34972); experiment: In vitro target engagement: CB2 surface expression on peripheral B cells in whole blood (flow cytometry); type: cell-based; conditions: for Emax: read-out: Mean Emax ± SD (%)
T2 construct: B cells show a low but robust surface expression of CB2; endogenous in cells; host or cells: B cells in human whole blood (healthy participants, diabetic patients)
From the text: To monitor target engagement by RO6868847 in humans, a flow cytometry assay was developed utilizing an in-house monoclonal anti-human CB2 antibody in combination with established blood cell markers (CD45, CD14, CD3, and CD19) (1078220). […] As with most GPCR agonists, RO6868847 is expected to trigger CB2 receptor internalization upon CB2 activation, resulting in decreased surface detection. In order to establish this measure as a surrogate target engagement biomarker, freshly isolated whole blood samples (n=9) from healthy participants were incubated in duplicates in vitro for 1 hour at 37° C. with eight different increasing concentrations of RO6868847 and were subsequently subjected to the flow cytometry assay (1078220).
The availability of this in vitro target engagement assay also enabled us to explore the target engagement—exposure response in blood samples obtained from patients with diabetic mellitus (Type 1 and Type 2) and healthy controls matched for age, gender and BMI (Table 6) (1097891). This population was selected as it is similar to the envisaged target patient population for the proof-of-concept Phase II trial, encompassing diabetic patients according to definition by the World Health Organization and/or the American Diabetes Association.

[3] = Solubility of drug substance; type: physicochemical
Protocol: For Phase I, film-coated tablets for oral administration containing 0.05, 0.75, 10, or 100 mg of RO6868847 drug substance were developed for clinical use. Three placebo film-coated tablets were formulated to match the active film-coated tablets in size and in appearance: one size to match the active 0.05 and 0.75 mg film-coated tablets and one size each to match the active 10 and 100 mg film-coated tablets.

[4] = Study BP40387 Part 1 (SAD) pharmacokinetics, healthy participants; type: in vivo, human; conditions: for Tmax / half-life / AUC / Cmax: both sexes, human, plasma
Protocol: In Part 1 (SAD) of Study BP40387, in the fasted state, RO6868847 was overall rapidly absorbed; however, the Tmax appeared to shift with increasing dose. Individual Tmax ranged between 1 to 6 hours at 100 mg and 300 mg RO6868847.

human CB1 = human CB1 (Homo sapiens, UniProt P21554); experiment: Human CB1 binding assay
clinical = conditions: both, human, plasma, oral
Protocol: Study BP40387 was a Phase I study that was conducted in healthy male and female participants, and included 5 parts. Part 1 (SAD) consisted of an adaptive, single-ascending-dose, investigator/participant-blind, randomized, placebo-controlled, parallel study to investigate the safety, tolerability, and pharmacokinetics of RO6868847. Part 2 (FE), was designed as an open-label, randomized, two-period crossover, single dose investigation of the effect of food on the pharmacokinetics of RO6868847. Part 3 (MAD), was an adaptive, multiple-ascending-dose, investigator/participant-blind, randomized, placebo-controlled, parallel study to investigate the safety, tolerability, and pharmacokinetics of RO6868847 administered once-daily for 14 days. Part 4 (DDI-CYP Induction), was a non-randomized, open-label, fixed-sequence, two-period study to explore RO6868847-mediated CYP induction at 300 mg administered once-daily for 14 days, using midazolam, repaglinide, and bupropion as probe substrates for CYP3A, CYP2C8, and CYP2B6, respectively. […] Overall, in Part 1 (SAD), a total of 33 healthy participants received single oral doses of RO6868847 ranging between 0.75 mg and 300 mg, and 12 participants received placebo under fasting conditions. In Part 2 (FE), 8 participants received a single oral dose of 100 mg RO6868847 once after an overnight fast of at least 10 hours and once within 30 minutes after starting a high-calorie, high-fat breakfast. In Part 3 (MAD), a total of 30 participants received multiple oral doses of 6 mg to 300 mg RO6868847 QD for 14 days, and 10 participants received placebo.

[5] = single oral 0.75 mg, fasted, geo mean
[6] = single oral 3.0 mg, fasted, geo mean
[7] = single oral 10 mg, fasted, geo mean
[8] = single oral 30 mg, fasted, geo mean
[9] = single oral 100 mg, fasted, geo mean
[10] = single oral 300 mg, fasted, geo mean

human CB1, sequence (P21554 whole entry): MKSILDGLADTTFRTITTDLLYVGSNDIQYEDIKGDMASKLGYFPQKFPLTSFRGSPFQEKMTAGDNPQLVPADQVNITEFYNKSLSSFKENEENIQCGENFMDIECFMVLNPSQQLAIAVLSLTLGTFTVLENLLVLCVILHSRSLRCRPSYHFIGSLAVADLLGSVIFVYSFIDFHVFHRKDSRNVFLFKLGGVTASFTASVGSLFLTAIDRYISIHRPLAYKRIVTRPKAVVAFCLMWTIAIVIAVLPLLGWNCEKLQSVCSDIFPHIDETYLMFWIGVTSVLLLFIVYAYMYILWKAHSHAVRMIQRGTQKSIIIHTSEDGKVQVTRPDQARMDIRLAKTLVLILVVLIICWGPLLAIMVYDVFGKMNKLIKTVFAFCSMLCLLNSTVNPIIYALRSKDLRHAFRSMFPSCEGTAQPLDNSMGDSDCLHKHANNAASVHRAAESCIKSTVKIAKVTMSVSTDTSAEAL
T2 sequence (P34972 whole entry): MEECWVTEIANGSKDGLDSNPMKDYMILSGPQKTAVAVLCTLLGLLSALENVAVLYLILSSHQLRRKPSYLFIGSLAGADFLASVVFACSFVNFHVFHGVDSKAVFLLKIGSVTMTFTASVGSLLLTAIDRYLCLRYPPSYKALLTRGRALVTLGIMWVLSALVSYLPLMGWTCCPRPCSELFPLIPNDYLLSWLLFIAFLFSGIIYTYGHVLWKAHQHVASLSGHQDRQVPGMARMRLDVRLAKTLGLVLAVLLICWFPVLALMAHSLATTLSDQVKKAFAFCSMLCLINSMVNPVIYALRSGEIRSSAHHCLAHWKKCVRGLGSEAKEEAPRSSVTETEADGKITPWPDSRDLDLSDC
T1 sequence (P34972 whole entry): as above

For `Cn1nnnc1Cn1nnc2c(N3CC[C@H](O)C3)nc(C(C)(C)C)nc21` [RO6868847, (3S)-1-[5-tert-butyl-3-[(1-methyltetrazol-5-yl)methyl]triazolo[4,5-d]pyrimidin-7-yl]pyrrolidin-3-ol], the IC50 (human CB2) was 0.117 ± 0.0263 µM, the Ki (human CB2) was 0.0513 µM and the “Renal excretion, share of the dose administered” value [1] was “less than 5%”. For the same molecule, the “selectivity for CB2 in panels” value [2] was “high selectivity for CB2 in all the panels”, the “Fold change vs HPs” value (CB2 receptor on B-cells; DM) was 1.8x and the Emax (CB2 receptor on B-cells; DM, n = 8) was 56.2 ± 11.7%. The “Fold change vs HPs” value (CB2 receptor on B-cells; Healthy Participants) was 1, the “CB2 surface expression on B-cells” value (CB2 receptor on B-cells; Healthy Participants, n = 9) was “concentration-dependent reduction of CB2 surface expression on B-cells” and the “Mean Emax ± SD (%)” value (CB2 receptor on B-cells; Healthy Participants, n = 9) was 55.0 ± 4.6 (n = 9) %. The Emax (CB2 receptor on B-cells; Healthy Participants, n = 9) was 55 ± 4.6%, the “Fold change vs HPs” value (CB2 receptor on B-cells; Matched Healthy) was 2.6 x and the Emax (CB2 receptor on B-cells; Matched Healthy, n = 8) was 55.7 ± 6.8%. It also gave an IC50 (CB2 receptor on B-cells; Mean IC50 (CB2 on B-cells) ± SD (nM), DM, n = 8, one outlier excluded) of 172 ± 82 nM, an IC50 (CB2 receptor on B-cells; Mean IC50 (CB2 on B-cells) ± SD (nM), Healthy Participants, n = 9, 1 hour at 37° C.) of 96.5 ± 27.1 nM and an IC50 (CB2 receptor on B-cells; Mean IC50 (CB2 on B-cells) ± SD (nM), Matched Healthy, n = 8) of 253 ± 206 nM. The “fold higher concentration/exposure required for similar CB2R target engagement” value (CB2 receptor on B-cells; diabetic and matched (elderly) healthy vs younger healthy participants) was 2-3 fold and ~3 fold, the “CB2 receptor internalization on the surface of B-cells” value (CB2 receptor on B-cells; diabetic patients and matched healthy participants) was “dose-dependent CB2 receptor internalization” and the IC50 (CB2 receptor on B-cells; mean IC50 (TE), Healthy participants, 9 donors, converted) was 96.5 nM. The “solubility in aqueous solutions” value [3] was “slightly soluble”, the “solubility in organic solvents” value [3] was “moderate to good solubility” and the Tmax ([4]; oral, Study BP40387, fasted conditions, across doses, read-out: median Tmax) was 1 to 4 h. For the same molecule, the Tmax ([4]; oral, single dose 100 mg and 300 mg, fasted, read-out: Individual Tmax) was 1 to 6 h, the half-life ([4]; oral, single dose, range across doses, read-out: apparent terminal elimination half-life) was 6.95 to 18.5 h and the Tmax ([4]; po, 0.75 mg, single oral 0.75 mg, fasted, median, read-out: Tmax) was 1 h. The Tmax ([4]; po, 3 mg, single oral 3.0 mg, fasted, median, read-out: Tmax) was 1 h, the Tmax ([4]; po, 10 mg, single oral 10 mg, fasted, median, read-out: Tmax) was 1.75 h and the Tmax ([4]; po, 30 mg, single oral 30 mg, fasted, median, read-out: Tmax) was 1.5 h. For the same molecule, the Tmax ([4]; po, 100 mg, single oral 100 mg, fasted, median, read-out: Tmax) was 1.75 h, the Tmax ([4]; po, 300 mg, single oral 300 mg, fasted, median, read-out: Tmax) was 3 h and the AUC [4, 5] was 112 ng·h/mL. It also gave a Cmax [4, 5] of 9.92 ng/mL, a half-life ([4]; single oral 0.75 mg, fasted, geo mean, read-out: t1/2 (converted)) of 6.89 h and an AUC [4, 6] of 435 ng·h/mL. For the same molecule, the Cmax [4, 6] was 40 ng/mL, the half-life ([4]; single oral 3.0 mg, fasted, geo mean, read-out: t1/2 (converted)) was 7.99 h and the AUC [4, 7] was 972 ng·h/mL. The Cmax [4, 7] was 111 ng/mL, the half-life ([4]; single oral 10 mg, fasted, geo mean, read-out: t1/2 (converted)) was 6.95 h and the AUC [4, 8] was 3530 ng·h/mL. For the same molecule, the Cmax [4, 8] was 355 ng/mL, the half-life ([4]; single oral 30 mg, fasted, geo mean, read-out: t1/2 (converted)) was 6.97 h and the AUC [4, 9] was 12500 ng·h/mL. For the same molecule, the Cmax [4, 9] was 1120 ng/mL, the half-life ([4]; single oral 100 mg, fasted, geo mean, read-out: t1/2 (converted)) was 14.6 h and the AUC [4, 10] was 31400 ng·h/mL. For the same molecule, the Cmax [4, 10] was 2500 ng/mL, the half-life ([4]; single oral 300 mg, fasted, geo mean, read-out: t1/2 (converted)) was 18.5 h and the “dose-proportionality of Cmax and AUC” value ([4]; doses beyond 100 mg) was “slightly less than dose-proportional”. The “dose-proportionality of Cmax and AUC” value ([4]; up to 100 mg) was “no pronounced deviations from dose-proportionality; also recorded: approximately dose-proportionally”, the Ki (human CB1) was greater than 10 µM and the “CB1/CB2 Ratio (binding selectivity)” value (human CB1; CB1 Ki over CB2 Ki) was greater than 195 fold. For the same molecule, the “affinity for human CB1” value (human CB1; highest concentration of 10 μM) was “no affinity”, the half-life (clinical) was 8.27 to 39 h and the AUC (clinical; 6 mg) was 870 ng·h/mL. It also gave a Cmax (clinical; 6 mg) of 97.9 ng/mL, a half-life (clinical; 6 mg) of 8.27 h and an AUC (clinical; 20 mg) of 2610 ng·h/mL. For the same molecule, the Cmax (clinical; 20 mg) was 289 ng/mL, the Tmax (clinical; 20 mg) was 1.06 h and the half-life (clinical; 20 mg) was 15 h. It also gave an AUC (clinical; 60 mg) of 8480 ng·h/mL, a Cmax (clinical; 60 mg) of 899 ng/mL and a Tmax (clinical; 60 mg) of 2 h. The half-life (clinical; 60 mg) was 31.6 h, the AUC (clinical; 200 mg) was 21400 ng·h/mL and the Cmax (clinical; 200 mg) was 2380 ng/mL. The Tmax (clinical; 200 mg) was 3 h, the AUC (clinical; 300 mg) was 27100 ng·h/mL and the Cmax (clinical; 300 mg) was 2970 ng/mL. For the same molecule, the Tmax (clinical; 300 mg) was 2.5 h and the half-life (clinical; 300 mg) was 39 h.
